Tests used:
[1] = Cell viability assay (AlamarBlue) in HepAD38 cells; details: human
HBV = experiment: Determination of HBV DNA from the supernatants of HepAD38 cells (anti-HBV activity); format: cell-based, hepatitis B virus; details: Hepatitis B virus, 144 h; HBV DNA in HepAD38 supernatant, day 6, qPCR; read-out: Cell Activity (EC50)
Method in brief: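 HepAD38 cells, tetracycline withdrawn to induce HBV, treated with serial half-log compound dilutions; on day 6 HBV DNA purified from filtered supernatant and quantified by real-time PCR against HBV plasmid standards; EC50 from relative copy numbers by non-linear regression, three experiments in triplicate.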

HBV core protein = target: T1, HBV core protein (UniProt P03146); experiment: Biochemical capsid assembly assay (fluorescence quenching); parameters: species or system hepatitis B virus; details: read-out: Assembly Activity (IC50); BODIPY-FL labelled core protein, 300 μM NaCl, read 6 min after start
T1 construct: fused on or other part: BODIPY-FL maleimide label on the C-terminal Cys150
Method in brief: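 Purified E. coli-expressed HBV core protein (aa 1-149 plus Cys150), BODIPY-FL maleimide-labelled, at 1.0-2.0 μM in 50 mM HEPES pH 7.5 with 0.5% DMSO was used. Compounds were tested at 8 concentrations (0.5-log dilutions from 100, 31.6 or 10 μM). Assembly was started with NaCl ([…]), and fluorescence quenching was read after 6 min (ex 477/em 525 nm). EC50 was determined by non-linear regression.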

T1 sequence (P03146 whole entry, looked up, the tested form may be a part): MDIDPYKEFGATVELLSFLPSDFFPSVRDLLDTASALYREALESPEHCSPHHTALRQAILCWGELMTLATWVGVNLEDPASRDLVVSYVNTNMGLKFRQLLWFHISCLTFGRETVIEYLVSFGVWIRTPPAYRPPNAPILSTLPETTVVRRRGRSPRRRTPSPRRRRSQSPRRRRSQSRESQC

SMILES	CC50 at 6 days [1] [µM]	EC50 (HBV) [µM]	IC50 (HBV core protein) [µM]
CS(=O)(=O)CCNC(=O)c1n[nH]c2c1CN(C(=O)c1cc3ccccc3[nH]1)CC2 [Example 101, 5-(1H-indole-2-carbonyl)-N-(2-methanesulfonylethyl)-1H,4H,5H,6H7H-pyrazolo[4,3-c]pyridine-3-carboxamide]	> 100	< 100	< 100
CN(CCCO)C(=O)c1n[nH]c2c1CN(C(=O)c1cc3ccccc3[nH]1)CC2 [Example 102, N-(3-hydroxypropyl)-5-(1H-indole-2-carbonyl)-N-methyl-1H,4H,5H,6H,7H-pyrazolo[4,3-c]pyridine-3-carboxamide]	> 100	< 1	< 5
CCN(C)C(=O)c1n[nH]c2c1CN(C(=O)c1cc3ccccc3[nH]1)CC2 [Example 103, N-ethyl-5-(1H-indole-2-carbonyl)-N-methyl-1H,4H,5H,6H,7H-pyrazolo[4,3-c]pyridine-3-carboxamide]	> 100	< 1	< 5
COCCNC(=O)c1n[nH]c2c1CN(C(=O)c1cc3ccccc3[nH]1)CC2 [Example 104, 5-(1H-indole-2-carbonyl)-N-(2-methoxyethyl)-1H,4H,5H,6H,7H-pyrazolo[4,3-c]pyridine-3-carboxamide]	> 100	1 to 25	< 100
O=C(NCCCO)c1n[nH]c2c1CN(C(=O)c1cc3ccccc3[nH]1)CC2 [Example 105, N-(3-hydroxypropyl)-5-(1H-indole-2-carbonyl)-1H,4H,5H,6H,7H-pyrazolo[4,3-c]pyridine-3-carboxamide]	> 100	1 to 25	< 100
NC(=O)c1n[nH]c2c1CN(C(=O)c1cc3ccccc3[nH]1)CC2 [Example 106, 5-(1H-indole-2-carbonyl)-1H,4H,5H,6H,7H-pyrazolo[4,3-c]pyridine-3-carboxamide]	> 100	< 100	< 100
O=C(NCCO)c1n[nH]c2c1CN(C(=O)c1cc3ccccc3[nH]1)CC2 [Example 107, N-(2-hydroxyethyl)-5-(1H-indole-2-carbonyl)-1H,4H,5H,6H,7H-pyrazolo[4,3-c]pyridine-3-carboxamide]	> 100	1 to 25	< 100
O=C(c1cc2ccccc2[nH]1)N1CCc2[nH]nc(C(=O)N3CCOCC3)c2C1 [Example 108, 2-[3-(morpholine-4-carbonyl)-1H,4H,5H,6H,7H-pyrazolo[4,3-c]pyridine-5-carbonyl]-1H-indole]	> 100	1 to 25	< 100
CCNC(=O)c1n[nH]c2c1CN(C(=O)c1cc3ccccc3[nH]1)CC2 [Example 109, N-ethyl-5-(1H-indole-2-carbonyl)-1H,4H,5H,6H,7H-pyrazolo[4,3-c]pyridine-3-carboxamide]	> 100	1 to 25	5 to 10
O=C(c1cc2ccccc2[nH]1)N1CCc2[nH]nc(C(=O)N3CCCCC3)c2C1 [Example 112, 2-[3-(piperidine-1-carbonyl)-1H,4H,5H,6H,7H-pyrazolo[4,3-c]pyridine-5-carbonyl]-1H-indole]	> 32	< 1	< 5
CON(C)C(=O)c1n[nH]c2c1CN(C(=O)c1cc3c(Cl)cccc3[nH]1)CC2 [Example 113, 5-(4-chloro-1H-indole-2-carbonyl)-N-methoxy-N-methyl-1H,4H,5H,6H,7H-pyrazolo[4,3-c]pyridine-3-carboxamide]	> 100	< 1	< 5
O=C(c1cc2c(F)cccc2[nH]1)N1CCc2[nH]ncc2C1 [Example 114, 4-fluoro-2-{1H,4H,5H,6H,7H-pyrazolo[4,3-c]pyridine-5-carbonyl}-1H-indole]	> 100	< 1	< 5
Nc1n[nH]c2c1CN(C(=O)c1cc3ccccc3[nH]1)CC2 [Example 115, 5-(1H-indole-2-carbonyl)-1H,4H,5H,6H,7H-pyrazolo[4,3-c]pyridin-3-amine]	> 100	1 to 25	5 to 10
Cc1noc(-c2n[nH]c3c2CN(C(=O)c2cc4ccccc4[nH]2)CC3)n1 [Example 116, 2-[3-(3-methyl-1,2,4-oxadiazol-5-yl)-1H,4H,5H,6H,7H-pyrazolo[4,3-c]pyridine-5-carbonyl]-1H-indole]	> 100	< 100	5 to 10
O=C(c1cc2c(F)cc(F)cc2[nH]1)N1C2CCC1c1cn[nH]c1C2 (stereo not drawn) [Example 117, 11-(4,6-difluoro-1H-indole-2-carbonyl)-4,5,11-triazatricyclo[6.2.1.0^2,6]undeca-2(6),3-diene]	> 100	< 100	< 100
O=C(c1cc2ccccc2[nH]1)N1CCc2[nH]nc(CO)c2C1 [Example 118, [5-(1H-indole-2-carbonyl)-1H,4H,5H,6H,7H-pyrazolo[4,3-c]pyridin-3-yl]methanol]	> 100	1 to 25	5 to 10
O=C(c1cc2ccc(Br)cc2[nH]1)N1CCc2[nH]ncc2C1 [Example 119, 6-bromo-2-{1H,4H,5H,6H,7H-pyrazolo[4,3-c]pyridine-5-carbonyl}-1H-indole]	> 100	< 1	< 5
O=C(c1cc2cccc(Cl)c2[nH]1)N1CCc2[nH]ncc2C1 [Example 120, 7-chloro-2-{1H,4H,5H,6H,7H-pyrazolo[4,3-c]pyridine-5-carbonyl}-1H-indole]	> 100	< 1	5 to 10
O=C(c1cc2cc(Cl)ccc2[nH]1)N1CCc2[nH]ncc2C1 [Example 122, 5-chloro-2-{1H,4H,5H,6H,7H-pyrazolo[4,3-c]pyridine-5-carbonyl}-1H-indole]	> 100	1 to 25	< 100
O=C(c1cc2ccccc2[nH]1)N1CCc2[nH]nc(C(=O)N3CCCN3)c2C1 [Example 124, 2-[3-(pyrazolidine-1-carbonyl)-1H,4H,5H,6H,7H-pyrazolo[4,3-c]pyridine-5-carbonyl]-1H-indole]	> 32	< 1	< 5
CON(C)C(=O)c1n[nH]c2c1CN(C(=O)c1cc3c(F)ccc(F)c3[nH]1)CC2 [Example 125, 5-(4,7-difluoro-1H-indole-2-carbonyl)-N-methoxy-N-methyl-1H,4H,5H,6H,7H-pyrazolo[4,3-c]pyridine-3-carboxamide]	> 100	< 1	< 5
CON(C)C(=O)c1n[nH]c2c1CN(C(=O)c1cc3c(Cl)cc(F)cc3[nH]1)CC2 [Example 126, 5-(4-chloro-6-fluoro-1H-indole-2-carbonyl)-N-methoxy-N-methyl-1H,4H,5H,6H,7H-pyrazolo[4,3-c]pyridine-3-carboxamide]	> 32	< 1	< 5
CON(C)C(=O)c1n[nH]c2c1CN(C(=O)c1cc3c(F)cc(F)cc3[nH]1)CC2 [Example 127, 5-(4,6-difluoro-1H-indole-2-carbonyl)-N-methoxy-N-methyl-1H4H,5H,6H,7H-pyrazolo[4,3-c]pyridine-3-carboxamide]	> 100	< 1	< 5
CON(C)C(=O)c1n[nH]c2c1CN(C(=O)c1cc3c(C)cc(F)cc3[nH]1)CC2 [Example 128, 5-(6-fluoro-4-methyl-1H-indole-2-carbonyl)-N-methoxy-N-methyl-1H,4H,5H,6H,7H-pyrazolo[4,3-c]pyridine-3-carboxamide]	98	< 1	< 5
CON(C)C(=O)c1n[nH]c2c1CN(C(=O)c1cc3c(C(F)(F)F)cccc3[nH]1)CC2 [Example 129, N-methoxy-N-methyl-5-[4-(trifluoromethyl)-1H-indole-2-carbonyl]-1H,4H,5H,6H,7H-pyrazolo[4,3-c]pyridine-3-carboxamide]	> 32	< 1	< 5
CON(C)C(=O)c1n[nH]c2c1CN(C(=O)c1cc3c(C)cccc3[nH]1)CC2 [Example 131, N-methoxy-N-methyl-5-(4-methyl-1H-indole-2-carbonyl)-1H,4H,5H,6H,7H-pyrazolo[4,3-c]pyridine-3-carboxamide]	> 100	< 1	< 5
O=C(c1cc2ccccc2[nH]1)N1CCc2[nH]nc(C(=O)N3CCCO3)c2C1 [Example 133, 2-[3-(1,2-oxazolidine-2-carbonyl)-1H,4H,5H,6H,7H-pyrazolo[4,3-c]pyridine-5-carbonyl]-1H-indole]	> 100	< 100	< 5
Cc1cc(F)cc2[nH]c(C(=O)N3CCc4[nH]ncc4C3)cc12 [Example 135, 6-fluoro-4-methyl-2-{1H,4H,5H,6H,7H-pyrazolo[4,3-c]pyridine-5-carbonyl}-1H-indole]	> 100	< 1	< 5
Cc1cccc2[nH]c(C(=O)N3CCc4[nH]ncc4C3)cc12 [Example 136, 4-methyl-2-{1H,4H,5H,6H,7H-pyrazolo[4,3-c]pyridine-5-carbonyl}-1H-indole]	> 100	< 1	< 5

From patent publication US11236087B2, “Highly active pyrazolo-piperidine substituted indole-2-carboxamides active against the hepatitis B virus (HBV)” (AiCuris GmbH & Co. KG, priority 2017, dated 2022)
